From patent US11046715B2, “Boronic derivatives of hydroxamates as anticancer agents” (Xavier University of Louisiana, priority 2016, dated 2021)
Several values for one entry are separate records, joined by “and”; a condition that tells them apart may be missing. Equal entries are not always repeated.

How the values were obtained:
[1] = tested on: SK-OV-3: human ovarian cancer; assay: In vitro cytotoxicity / antiproliferation, SK-OV-3; assay type: cell-based
[2] = tested on: NCI-H460: human non-small-cell lung cancer; assay: In vitro cytotoxicity / antiproliferation, NCI-H460; assay type: cell-based; conditions: NCI-H460, read-out: Antiproliferation activity (IC50)
[3] = tested on: SK-MEL-28: human melanoma; assay: In vitro cytotoxicity / antiproliferation, SK-MEL-28; assay type: cell-based; conditions: SK-MEL-28, read-out: Antiproliferation activity (IC50)
[4] = tested on: MDA-MB-231: human breast adenocarcinoma; assay: In vitro cytotoxicity / antiproliferation, MDA-MB-231; assay type: cell-based; conditions: MDA-MB-231, read-out: Antiproliferation activity (IC50)
[5] = tested on: HeLa: human epitheloid cervix carcinoma; assay: In vitro cytotoxicity / antiproliferation, HeLa; assay type: cell-based
Description: (§1) The in vitro cytotoxicity of boronic derivatives of hydroxamates was tested against various cancer cell lines; the results are provided in Table 1.

[6] = tested on: A549: human non-small-cell lung carcinoma; assay: In vitro cytotoxicity / antiproliferation, A549; assay type: cell-based
Description: as §1

[7] = tested on: MCF-7: human breast adenocarcinoma; assay: In vitro cytotoxicity / antiproliferation, MCF-7; assay type: cell-based; conditions: MCF7
Description: as §1

MCF-7 tumor xenograft = assay: In vivo efficacy in MCF-7 tumor xenograft model in mice; conditions: 10 mg/kg/day subcutaneous; for effect on tumor growth (in words): compared with vehicle group; for average tumor volume: day 15; for Tumor volume: day 24, MCF-7 xenograft mice
MDA-MB-231 cells = assay: In vitro pharmacokinetics: concentrations in culture media after incubation with MDA-MB-231 cells; assay type: in vitro ADME, human; conditions: 1-day incubation with MDA-MB-231 cells
[8] = In vivo pharmacokinetics in mice after intraperitoneal injection (plasma); conditions: single dose 10 mg/kg IP
Description: Pharmacokinetic studies of compound 3 in mice were conducted.

[9] = Concentration in tumor tissue of MCF-7 xenograft mice; assay type: in vivo; conditions: after 24 days at 10 mg/kg/day subcutaneous
[10] = molecular target: Histone deacetylase (HDAC); assay: Histone deacetylase activity assay kit (Fluorometric) ab156064; assay type: biochemical; conditions: 20 min incubation; read-out: HDAC inhibitory activity EC50

Cn1c(CCCC(=O)O)nc2cc(N(CCCl)CCCl)ccc21 [Bendamustine, reference compound]
IC50 [1]: 33.4 µM
IC50 [2]: 45.3 µM
IC50 [3]: 149 µM
IC50 [4]: 37.5 µM

CCN(CC)Cc1ccc2cc(COC(=O)Nc3ccc(C(=O)NO)cc3)ccc2c1 [Givinostat, reference compound]
IC50 [2]: 0.103 µM
IC50 [3]: 0.0913 µM
IC50 [4]: 0.119 µM

CC(C)Cc1ccc(C(C)C(=O)NOCc2ccc(B3OC(C)(C)C(C)(C)O3)cc2)cc1 (stereo not drawn) [Compound 14]
IC50 [5]: > 10 µM
IC50 [4]: > 10 µM
IC50 [6]: > 10 µM

CN(C)Cc1ccc(S(=O)(=O)n2ccc(/C=C/C(=O)NOCc3ccc(B4OC(C)(C)C(C)(C)O4)cc3)c2)cc1 [Compound 5]
IC50 [5]: > 10 µM
IC50 [4]: > 10 µM
IC50 [6]: > 10 µM

COc1ccc(C(=O)NOCc2ccc(B3OC(C)(C)C(C)(C)O3)cc2)cc1OC [Compound 16]
IC50 [5]: > 10 µM
IC50 [4]: > 10 µM
IC50 [6]: > 10 µM

CC1(C)OB(c2ccc(CONC(=O)c3cc4ccccc4oc3=O)cc2)OC1(C)C [Compound 15]
IC50 [5]: > 10 µM
IC50 [4]: > 10 µM
IC50 [6]: > 10 µM

O=C(/C=C/c1cccc(S(=O)(=O)Nc2ccccc2)c1)NO [Belinostat, reference compound]
IC50 [5]: 0.0865 µM
IC50 [7]: 0.0964 µM
IC50 [4]: 0.0616 µM
TGI (inhibition of tumor growth) (MCF-7 tumor xenograft; 24 days): 77.7%
effect on tumor growth (in words) (MCF-7 tumor xenograft): potent inhibitory activity against the growth of tumor
average tumor volume (MCF-7 tumor xenograft): 167 mm^3
Tumor volume (MCF-7 tumor xenograft): 194 mm^3 and 193.68 ± 29.79 mm^3
IC50 [6]: 0.0766 µM

COc1cc(C(=O)NOCc2ccc(B3OC(C)(C)C(C)(C)O3)cc2)cc(OC)c1OC [Compound 13]
IC50 [5]: > 10 µM
IC50 [4]: > 10 µM
IC50 [6]: > 10 µM

CCN(CC)Cc1ccc2cc(COC(=O)Nc3ccc(C(=O)NOCc4ccc(B5OC(C)(C)C(C)(C)O5)cc4)cc3)ccc2c1 [Compound 4]
IC50 [1]: 0.296 µM
IC50 [2]: 0.154 µM
IC50 [3]: 0.377 µM
IC50 [4]: 0.321 µM

CC1(C)OB(c2ccc(CONC(=O)CCCCCCC(=O)Nc3ccccc3)cc2)OC1(C)C [Compound 1]
IC50 [1]: 55.2 µM
IC50 [3]: 13.5 µM
IC50 [4]: 423 µM

CC1=C(CC(=O)NOCc2ccc(B3OC(C)(C)C(C)(C)O3)cc2)c2cc(F)ccc2/C1=C/c1ccc([S+](C)[O-])cc1 (stereo not drawn) [Compound 11]
IC50 [5]: 277 µM
IC50 [1]: 19.4 µM
IC50 [2]: 1.01 µM
IC50 [3]: 77.4 µM
IC50 [4]: 20.1 µM
IC50 [6]: 696 µM

Cn1c(CCCC(=O)NOCc2ccc(B3OC(C)(C)C(C)(C)O3)cc2)nc2cc(N(CCCl)CCCl)ccc21 [Compound 7]
IC50 [1]: 1.84 µM
IC50 [2]: 1.22 µM
IC50 [3]: 0.373 µM
IC50 [4]: 3.33 µM

CC1=C(CC(=O)O)c2cc(F)ccc2/C1=C\c1ccc([S+](C)[O-])cc1 (stereo not drawn) [Sulindac, reference compound]
IC50 [5]: 458 µM
IC50 [1]: 109 µM
IC50 [2]: 41.9 µM
IC50 [3]: 1400 µM
IC50 [4]: 1400 µM
IC50 [6]: 20400 µM

COc1ccc(C(=O)NOCc2ccc(B3OC(C)(C)C(C)(C)O3)cc2)cc1 [Compound 10]
IC50 [5]: > 10 µM
IC50 [4]: > 10 µM
IC50 [6]: > 10 µM

CC1(C)OB(c2ccc(CONC(=O)/C=C/c3cccc(S(=O)(=O)Nc4ccccc4)c3)cc2)OC1(C)C [Compound 3]
IC50 [5]: 0.273 µM
IC50 [7]: 1.46 µM
IC50 [2]: 0.43 µM
IC50 [3]: 0.678 µM
conversion of compound 3 in culture media (in words) (MDA-MB-231 cells): completely converted to compound 95 and partially to belinostat
maximum concentration of compound 95 relative to maximum concentration achieved by belinostat [8]: about forty times
IC50 [4]: 0.303 µM
concentration of belinostat and compound 95 added together in tumor tissue, relative to belinostat group [9]: five times greater
EC50 [10]: 0.35 µM
T/C (tumor volume ratio) (MCF-7 tumor xenograft; 24 days): 14.6%
TGI (inhibition of tumor growth) (MCF-7 tumor xenograft; 24 days): 85.3%
effect on tumor growth (in words) (MCF-7 tumor xenograft): resulted in tumor remission
effect on tumor growth (in words) (MCF-7 tumor xenograft; listed as compound 3): potent inhibitory activity against the growth of tumor
average tumor volume (MCF-7 tumor xenograft): 153 mm^3
Tumor volume (MCF-7 tumor xenograft): 127 mm^3
IC50 [6]: 0.453 µM
